# According to US20230263822A1, “MODULATION OF FACTOR 11 EXPRESSION” (Ionis Pharmaceuticals, Inc., priority 2008, published 2023):
# Assay: Hematology assays in cynomolgus monkeys (Example 45)
# Type: in vivo
# Conditions: for MCH / MCHC / MCV / RBC count / WBC count / hematocrit / hemoglobin: escalating dose regimen
# In short: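 Cynomolgus monkeys (2 male, 3 female per group) dosed subcutaneously with antisense oligonucleotide or PBS, escalating 5, 10, then 25 mg/kg two to three times weekly over 12 weeks; one chronic group held at 10 mg/kg from week 4. Blood sampled weekly; necropsy on day 85.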
substance,measurement,setting,value
"ISIS 416838: MOE gapmer, nucleobases 1018 to 1042 of SEQ ID NO: 1 (Table 6) (antisense GCAACCGGGATGATGAGTGC; MOE gapmer, wing and gap sizes not given here)",MCH,Day 64,23 pg
same,MCH,Day 71,23 pg
same,MCH,Day 78,23 pg
same,MCH,Day 85,23 pg
same,basophils,day 8,0.2%
same,eosinophils,day 8,0.4%
same,lymphocytes,day 8,54%
same,monocytes,day 8,2.5%
same,neutrophils,day 8,42%
same,platelet count,day 8,387000 µL⁻¹
same,reticulocytes,day 8,1.2%
same,MCH,day 8,23 pg
same,MCHC,day 8,30 g/dL
same,MCV,day 8,77 fL
same,RBC count,day 8,5.7e+06 µL⁻¹
same,WBC count,day 8,10000 µL⁻¹
same,hematocrit,day 8,43%
same,hemoglobin,day 8,12.9 g/dL
same,basophils,day 15,0.3%
same,eosinophils,day 15,0.3%
same,lymphocytes,day 15,53%
same,monocytes,day 15,2.4%
same,neutrophils,day 15,43%
same,platelet count,day 15,387000 µL⁻¹
same,reticulocytes,day 15,1.2%
same,MCH,day 15,23 pg
same,MCHC,day 15,31 g/dL
same,MCV,day 15,75 fL
same,RBC count,day 15,5.6e+06 µL⁻¹
same,WBC count,day 15,10000 µL⁻¹
same,hematocrit,day 15,42%
same,hemoglobin,day 15,12.9 g/dL
same,basophils,day 22,0.2%
same,eosinophils,day 22,0.5%
same,lymphocytes,day 22,59%
same,monocytes,day 22,2.9%
same,neutrophils,day 22,37%
same,platelet count,day 22,319000 µL⁻¹
same,reticulocytes,day 22,1.2%
same,MCH,day 22,23 pg
same,MCHC,day 22,29 g/dL
same,MCV,day 22,80 fL
same,RBC count,day 22,5.4e+06 µL⁻¹
same,WBC count,day 22,11000 µL⁻¹
same,hematocrit,day 22,43%
same,hemoglobin,day 22,12.5 g/dL
same,basophils,day 29,0.2%
same,eosinophils,day 29,0.3%
same,lymphocytes,day 29,59%
same,monocytes,day 29,3.2%
same,neutrophils,day 29,36%
same,platelet count,day 29,337000 µL⁻¹
same,reticulocytes,day 29,1.6%
same,MCH,day 29,23 pg
same,MCHC,day 29,29 g/dL
same,MCV,day 29,81 fL
same,RBC count,day 29,5.3e+06 µL⁻¹
same,WBC count,day 29,11000 µL⁻¹
same,hematocrit,day 29,43%
same,hemoglobin,day 29,12.4 g/dL
same,basophils,day 36,0.4%
same,eosinophils,day 36,0.5%
same,lymphocytes,day 36,57%
same,monocytes,day 36,2.5%
same,neutrophils,day 36,39%
same,platelet count,day 36,370000 µL⁻¹
same,reticulocytes,day 36,1.6%
same,MCH,day 36,23 pg
same,MCHC,day 36,30 g/dL
same,MCV,day 36,78 fL
same,RBC count,day 36,5.5e+06 µL⁻¹
same,WBC count,day 36,10000 µL⁻¹
same,hematocrit,day 36,43%
same,hemoglobin,day 36,12.8 g/dL
same,basophils,day 43,0.4%
same,eosinophils,day 43,0.6%
same,lymphocytes,day 43,65%
same,monocytes,day 43,3.3%
same,neutrophils,day 43,30%
same,platelet count,day 43,365000 µL⁻¹
same,reticulocytes,day 43,1.2%
same,MCH,day 43,23 pg
same,MCHC,day 43,30 g/dL
same,MCV,day 43,78 fL
same,RBC count,day 43,5.6e+06 µL⁻¹
same,WBC count,day 43,10000 µL⁻¹
same,hematocrit,day 43,43%
same,hemoglobin,day 43,12.7 g/dL
same,basophils,day 50,0.3%
same,eosinophils,day 50,0.8%
same,lymphocytes,day 50,64%
same,monocytes,day 50,3.2%
same,neutrophils,day 50,31%
same,platelet count,day 50,372000 µL⁻¹
same,reticulocytes,day 50,1.6%
same,MCH,day 50,23 pg
same,MCHC,day 50,28 g/dL
same,MCV,day 50,80 fL
